Experiments:
human KOR (GoB) [1] = target: T1, human KOR (GoB) (Homo sapiens, UniProt P41145, D105A); experiment: cell-based; conditions: HEK-293T
T1 construct: expressed in transfected cells; host or cells: HEK293T

human KOR (GoB) [2] = target: T2, human KOR (GoB) (Homo sapiens, UniProt P41145, D334A); experiment: cell-based; conditions: HEK-293T
T2 construct: expressed in transfected cells; host or cells: HEK293T

human KOR (GoB) [3] = target: T3, human KOR (GoB) (Homo sapiens, UniProt P41145, E297A); experiment: cell-based; conditions: HEK-293T
T3 construct: expressed in transfected cells; host or cells: HEK293T

human KOR (GoB) [4] = target: T4, human KOR (GoB) (Homo sapiens, UniProt P41145, F114L); experiment: cell-based; conditions: HEK-293T
T4 construct: expressed in transfected cells; host or cells: HEK293T

human KOR (GoB) [5] = target: T5, human KOR (GoB) (Homo sapiens, UniProt P41145, F283A); experiment: cell-based; conditions: HEK-293T
T5 construct: expressed in transfected cells; host or cells: HEK293T

human KOR (GoB) [6] = target: T6, human KOR (GoB) (Homo sapiens, UniProt P41145, G319L); experiment: cell-based; conditions: HEK-293T
T6 construct: expressed in transfected cells; host or cells: HEK293T

human KOR (GoB) [7] = target: T7, human KOR (GoB) (Homo sapiens, UniProt P41145, K200A); experiment: cell-based; conditions: HEK-293T
T7 construct: expressed in transfected cells; host or cells: HEK293T

human KOR (GoB) [8] = target: T8, human KOR (GoB) (Homo sapiens, UniProt P41145, K227A); experiment: cell-based; conditions: HEK-293T
T8 construct: expressed in transfected cells; host or cells: HEK293T

human KOR (GoB) [9] = target: T9, human KOR (GoB) (Homo sapiens, UniProt P41145, N322A); experiment: cell-based; conditions: HEK-293T
T9 construct: expressed in transfected cells; host or cells: HEK293T

human KOR (GoB) [10] = target: T10, human KOR (GoB) (Homo sapiens, UniProt P41145, N326A); experiment: cell-based; conditions: HEK-293T
T10 construct: expressed in transfected cells; host or cells: HEK293T

human KOR (GoB) [11] = target: T11, human KOR (GoB) (Homo sapiens, UniProt P41145, Q115N); experiment: cell-based; conditions: HEK-293T
T11 construct: expressed in transfected cells; host or cells: HEK293T

human KOR (GoB) [12] = target: T12, human KOR (GoB) (Homo sapiens, UniProt P41145, R170A); experiment: cell-based; conditions: HEK-293T
T12 construct: expressed in transfected cells; host or cells: HEK293T

human KOR (GoB) [13] = target: T13, human KOR (GoB) (Homo sapiens, UniProt P41145, R257A); experiment: cell-based; conditions: HEK-293T
T13 construct: expressed in transfected cells; host or cells: HEK293T

human KOR (GoB) [14] = target: T14, human KOR (GoB) (Homo sapiens, UniProt P41145, Y320L); experiment: cell-based; conditions: HEK-293T
T14 construct: expressed in transfected cells; host or cells: HEK293T

KOR = conditions: ERK activation versus p38 activation; cited from earlier work

T11 sequence (P41145 whole entry Q115N): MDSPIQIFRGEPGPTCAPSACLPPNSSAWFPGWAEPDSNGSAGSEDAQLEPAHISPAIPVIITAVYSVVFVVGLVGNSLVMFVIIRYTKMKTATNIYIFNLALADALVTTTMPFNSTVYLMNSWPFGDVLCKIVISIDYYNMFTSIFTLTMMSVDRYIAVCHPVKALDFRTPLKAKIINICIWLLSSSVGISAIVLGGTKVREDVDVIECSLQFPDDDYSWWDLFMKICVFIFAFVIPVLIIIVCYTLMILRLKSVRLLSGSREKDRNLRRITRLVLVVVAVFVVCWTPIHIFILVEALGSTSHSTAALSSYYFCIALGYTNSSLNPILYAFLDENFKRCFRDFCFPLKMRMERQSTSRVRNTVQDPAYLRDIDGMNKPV
T6 sequence (P41145 whole entry G319L): as the sequence (P41145 whole entry Q115N) above, with N115Q, G319L counted along it
T10 sequence (P41145 whole entry N326A): as the sequence (P41145 whole entry Q115N) above, with N115Q, N326A counted along it
T8 sequence (P41145 whole entry K227A): as the sequence (P41145 whole entry Q115N) above, with N115Q, K227A counted along it
T7 sequence (P41145 whole entry K200A): as the sequence (P41145 whole entry Q115N) above, with N115Q, K200A counted along it
T14 sequence (P41145 whole entry Y320L): as the sequence (P41145 whole entry Q115N) above, with N115Q, Y320L counted along it
T5 sequence (P41145 whole entry F283A): as the sequence (P41145 whole entry Q115N) above, with N115Q, F283A counted along it
T3 sequence (P41145 whole entry E297A): as the sequence (P41145 whole entry Q115N) above, with N115Q, E297A counted along it
T9 sequence (P41145 whole entry N322A): as the sequence (P41145 whole entry Q115N) above, with N115Q, N322A counted along it
T12 sequence (P41145 whole entry R170A): as the sequence (P41145 whole entry Q115N) above, with N115Q, R170A counted along it
T4 sequence (P41145 whole entry F114L): as the sequence (P41145 whole entry Q115N) above, with F114L, N115Q counted along it
T1 sequence (P41145 whole entry D105A): as the sequence (P41145 whole entry Q115N) above, with D105A, N115Q counted along it
T13 sequence (P41145 whole entry R257A): as the sequence (P41145 whole entry Q115N) above, with N115Q, R257A counted along it
T2 sequence (P41145 whole entry D334A): as the sequence (P41145 whole entry Q115N) above, with N115Q, D334A counted along it

Compound: CN(C(=O)/C=C/c1ccoc1)[C@@H]1CC[C@@]2(O)[C@H]3Cc4ccc(O)c5c4[C@@]2(CCN3CC2CC2)[C@H]1O5 [Nalfurafine, nalfurafine]
- Emax (human KOR (GoB) [1]): 91%
- Emax (human KOR (GoB) [2]): 91.1%
- Emax (human KOR (GoB) [3]): 103%
- Emax (human KOR (GoB) [4]): 77.5%
- Emax (human KOR (GoB) [5]): 91%
- Emax (human KOR (GoB) [6]): 108%
- Emax (human KOR (GoB) [7]): 98.3%
- Emax (human KOR (GoB) [8]): 94.3%
- Emax (human KOR (GoB) [9]): 87.1%
- Emax (human KOR (GoB) [10]): 93.6%
- Emax (human KOR (GoB) [11]): 80.5%
- Emax (human KOR (GoB) [12]): 87.8%
- Emax (human KOR (GoB) [13]): 99.6%
- Emax (human KOR (GoB) [14]): 76%
- bias factor toward G protein signaling (KOR): 200

Reference: PMC10008561 (Nature Communications, 2023)
